The values that follow are results of earlier work, collected in publication PMC10537421, “Co-Dispersion Delivery Systems with Solubilizing Carriers Improving the Solubility and Permeability of Cannabinoids (Cannabidiol, Cannabidiolic Acid, and Cannabichromene) from Cannabis sativa (Henola Variety) Inflorescences” (Pharmaceutics, 2023).

Read-outs that look alike come from different tables or passages of the source.

For data set [1] the following is noted: for bioavailability: oral administration; for bioavailability after inhalation: smoking or vaporizing.
For data set [2] the following is noted: for CBD released: SIF and SGF.

In the case of `CCCCCc1cc(O)c2c(c1)OC(C)(CCC=C(C)C)C=C2` (stereo not drawn) [CBC, cannabichromene], where the note is “approximate”, the pKa is listed as 9.5–10.3.

With `C=C(C)[C@@H]1CCC(C)=C[C@H]1c1c(O)cc(CCCCC)cc1O` [CBD, cannabidiol], the pKa is on record as 9.3–10.3. In data set [1], the “bioavailability after sublingual administration” value was 13–19%, the bioavailability result is “≈ 6%” and the bioavailability after inhalation is on record as 11–45%. Further, the CBD released result in data set [2] (1 h) is listed as “less than 3%”. The CBD released result in data set [2] (48 h) is recorded as “less than 10%”. For the same compound, the “CBD detected after SIF digestion (bioaccessibility)” value in data set [2] (simulated intestinal fluid) is listed as 29%.

Take `C=C(C)[C@@H]1CCC(C)=C[C@H]1c1c(O)cc(CCCCC)c(C(=O)O)c1O` [CBDA, cannabidiolic acid]: the pKa (approximate) is given as about 2.9.

Regarding `CCCCCc1cc(O)c2c(c1)OC(C)(C)[C@@H]1CCC(C)=C[C@@H]21` [THC, tetrahydrocannabinol], in data set [1], the “bioavailability after sublingual administration” value is 13–14%, the bioavailability was 4–12% and the bioavailability after inhalation is 10% to 35%.
